Experimental data published in paper PMC7449411, “In silico discovery and biological validation of ligands of FAD synthase, a promising new antimicrobial target” (PLoS Computational Biology, 2020).

How the values were obtained:
S. thyphimurium = test: MIC, resazurin broth microdilution; assay type: cell-based, Salmonella thyphimurium; details: media MH
C. ammoniagenes = test: MIC, resazurin broth microdilution; assay type: cell-based, Corynebacterium ammoniagenes; details: C. ammoniagenes
M. smegmatis = test: MIC, resazurin broth microdilution; assay type: cell-based, Mycobacterium smegmatis; details: media 7H9G-ADC
S. pneumoniae = test: MIC, resazurin broth microdilution; assay type: cell-based, Streptococcus pneumoniae
S. aureus = test: MIC, resazurin broth microdilution; assay type: cell-based, Staphylococcus aureus; details: media MH
M. tuberculosis = test: MIC, resazurin broth microdilution; assay type: cell-based, Mycobacterium tuberculosis; details: M. tuberculosis, media 7H9G-ADC
E. coli = test: MIC, resazurin broth microdilution; assay type: cell-based, Escherichia coli; details: media LB
P. aeruginosa = test: MIC, resazurin broth microdilution; assay type: cell-based, Pseudomonas aeruginosa; details: media MH
C. diphteriae = test: MIC, resazurin broth microdilution; assay type: cell-based, Corynebacterium diphteriae
C. glutamicum = test: MIC, resazurin broth microdilution; assay type: cell-based, Corynebacterium glutamicum; details: media BHI
L. monocytogenes = test: MIC, resazurin broth microdilution; assay type: cell-based, Listeria monocytogenes; details: media BHI
FMNAT activity of CaFADS = target: T1, FMNAT activity of CaFADS (Corynebacterium ammoniagenes, UniProt Q59263); test: Inhibition of the FMNAT activity of CaFADS; assay type: biochemical; details: residual activity at 250 μM of compound, 25 °C
T1 construct: made in house; host or cells: Escherichia coli BL21(DE3)
Method: (§1) To determine the compound’s ability to inhibit the RFK and/or the FMNAT activities of CaFADS, both enzymatic activities were quantitatively measured in the absence and presence of the compounds following previously described protocols. Reaction mixtures contained 50 μM ATP, 5 μM RF in 20 mM PIPES, pH 7.0, 0.8 mM MgCl2, when assaying the RFK activity, and 50 μM ATP, 10 μM FMN in 20 mM PIPES, pH 7.0, 10 mM MgCl2 when measuring the FMNAT reaction. Each compound was tested at 250 μM (0.5% residual final concentration of DMSO) for each of the two enzymatic reactions. The samples were pre-incubated at 25 °C, the reaction was then initiated by the addition of ∼ 40 nM CaFADS (final concentration) and allowed for 1 min. Finally, the reaction was stopped by boiling the samples for 5 min and the denatured protein was eliminated through centrifugation. The transformation of RF into FMN and FAD (RFK activity) and of FMN into FAD (FMNAT activity) was evaluated through flavins separation by HPLC (Waters), as previously described. All the experiments were performed in triplicate. To evaluate the potency of compounds as inhibitors, we took advantage of the decrease in quantum yield of fluorescence when FMN is transformed into FAD, which allows to follow such transformation in a continuous system. Measurements were carried out using a microplate reader Synergy HT multimode plate reader (Biotek) with BRAND 96-well plates pure Grade. Reaction mixtures contained 5 μM RF or FMN, and 50 μM ATP in 20 mM PIPES, pH 7.0, 10 mM MgCl2, and the inhibitor compound in a 5-250 μM concentration range (2% residual final concentration of DMSO). Reactions were initiated through addition of 0.4 μM CaFADS, being the final reaction volume 100 μL. Flavin fluorescence (excitation at 440 nm and emission at 530 nm) was registered at 25 °C, every 50 s during 15 min. The fluorescence change per time unit (ΔF/Δt) was calculated as the slope of the resulting fluorescence decays recorded between 0 and 6 min (linear decay of the fluorescence). Controls which contained the reaction mixture without the enzyme and without any potential CaFADS inhibitory compound were included in the assay and referred as the 0% and 100% of enzymatic activity, respectively. IC50 was calculated as the concentration of compound required for a 50% inhibition of the enzymatic activity.

[1] = target: T2, RFK+FMNAT CaFADS activities (Corynebacterium ammoniagenes, UniProt Q59263); test: Inhibition of the RFK+FMNAT activity of CaFADS; assay type: biochemical; details: residual activity at 250 μM of compound, 25 °C
T2 construct: made in house; host or cells: Escherichia coli BL21(DE3)
Method: as §1

CaFADS = target: T3, CaFADS (Corynebacterium ammoniagenes, UniProt Q59263); test: Differential scanning fluorescence (thermal denaturation) binding to CaFADS; details: 2 μM CaFADS, compound up to 250 μM
T3 construct: made in house; host or cells: Escherichia coli BL21(DE3)
Method: Interaction of compounds with CaFADS was evaluated using fluorescence thermal denaturation, on the bases of the shifts in denaturation midpoints of thermal curves of the protein [65]. Denaturations were performed in a Stratagene Agilent Mx3005p qPCR instrument (Santa Clara, US) following SYPR Orange (ThermoFisher Scientific) emission fluorescence (excitation at 492 nm and emission at 610 nm), which greatly increases when this probe binds to protein hydrophobic regions becoming solvent exposed upon thermal unfolding. Solutions containing 2 μM CaFADS with the studied compound in an increasing 5-250 μM concentration range (2% residual final concentration of DMSO) and 5xSYPR Orange in 20 mM PIPES pH 7.0, 10 mM MgCl2, with a 100 μL total volume were dispensed into 96-well microplates (BRAND 96-well plates pure grade™). After an initial 1 min incubation at 25 °C within the equipment, unfolding curves were registered from 25 to 100 °C at 1 °C·min^−1. Control experiments with CaFADS samples with/without DMSO were routinely performed in each microplate. For those compounds shifting midpoint denaturation temperature, Tm, the dissociation constant, Kd, was predicted by fitting the data to the equation [66] ΔTm/Tm=NRTm0/ΔH0ln(1+[L]/Kd), (2) which estimates the extent of the ligand-induced protein stabilization/destabilization. ΔTm=|Tm-Tm0| with Tm0 and Tm being the midpoint denaturation temperatures in the absence and the presence of ligand, respectively, and ΔH0 the unfolding enthalpy of the protein in the absence of ligand.

T1 sequence (Q59263 whole entry): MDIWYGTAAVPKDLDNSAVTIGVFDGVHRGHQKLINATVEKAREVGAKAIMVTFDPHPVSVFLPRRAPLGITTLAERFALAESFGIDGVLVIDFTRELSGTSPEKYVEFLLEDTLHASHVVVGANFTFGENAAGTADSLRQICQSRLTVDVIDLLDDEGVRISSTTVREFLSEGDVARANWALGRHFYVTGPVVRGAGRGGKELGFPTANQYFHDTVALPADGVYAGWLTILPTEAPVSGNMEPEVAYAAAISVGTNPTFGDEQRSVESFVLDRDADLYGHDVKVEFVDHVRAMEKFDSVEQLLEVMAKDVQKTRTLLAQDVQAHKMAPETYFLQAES
T2 sequence (Q59263 whole entry): as above
T3 sequence (Q59263 whole entry): as above

## O=C(O)CC(CC(=O)Nc1ccc2ccccc2n1)c1ccccc1 (stereo not shown) [Compound C4, 5-oxo-3-phenyl-5-(2-quinolinylamino)pentanoic acid]
S. thyphimurium
  MIC: > 256 µM
C. ammoniagenes; media BHI
  MIC: > 64 µM
C. ammoniagenes; media MH
  MIC: > 256 µM
C. ammoniagenes; media MH+DFO
  MIC: > 256 µM
C. ammoniagenes; media MH+DIP
  MIC: > 256 µM
C. ammoniagenes; media MH+DIP+DFO
  MIC: > 256 µM
M. smegmatis
  MIC: > 256 µM
S. pneumoniae; media BHI
  MIC: > 256 µM
S. pneumoniae; media MH
  MIC: > 256 µM
S. aureus
  MIC: > 256 µM
M. tuberculosis
  MIC: > 256 µM
E. coli
  MIC: > 64 µM
P. aeruginosa
  MIC: > 256 µM
C. diphteriae; media BHI
  MIC: > 64 µM
C. diphteriae; media MH
  MIC: > 256 µM
C. glutamicum
  MIC: > 64 µM
L. monocytogenes
  MIC: > 64 µM

## Cc1c(N=CN(C(=O)c2ccccc2)c2cccc([N+](=O)[O-])c2C)cccc1[N+](=O)[O-] [Compound C7, N1-(2-methyl-3-nitrophenyl)-N1-{[(2-methyl-3-nitrophenyl)imino]methyl}benzamide]
S. thyphimurium
  MIC: > 256 µM
C. ammoniagenes; media MH
  MIC: > 256 µM
C. ammoniagenes; media MH+DFO
  MIC: > 256 µM
C. ammoniagenes; media MH+DIP
  MIC: > 256 µM
C. ammoniagenes; media MH+DIP+DFO
  MIC: > 256 µM
FMNAT activity of CaFADS
  FMNAT % Res. act. 250 μM: >95%
S. aureus
  MIC: > 256 µM
M. tuberculosis
  MIC: > 256 µM
E. coli
  MIC: > 256 µM
P. aeruginosa
  MIC: > 256 µM
C. diphteriae; media MH
  MIC: > 256 µM
C. glutamicum
  MIC: > 256 µM
[1]
  RFK+FMNAT % Res. act. 250 μM: 82 ± 7%
L. monocytogenes
  MIC: > 256 µM

## N#CC(=Cc1cccc([N+](=O)[O-])c1)c1nn(-c2ccccc2)c(-n2cccc2)c1C#N [Compound C8, 3-[1-cyano-2-(3-nitrophenyl)vinyl]-1-phenyl-5-(1H-pyrrol-1-yl)-1H-pyrazole-4-carbonitrile]
S. thyphimurium
  MIC: > 256 µM
C. ammoniagenes; media BHI
  MIC: > 64 µM
C. ammoniagenes; media MH
  MIC: > 256 µM
C. ammoniagenes; media MH+DFO
  MIC: > 256 µM
C. ammoniagenes; media MH+DIP
  MIC: > 256 µM
C. ammoniagenes; media MH+DIP+DFO
  MIC: > 256 µM
M. smegmatis
  MIC: > 256 µM
S. pneumoniae; media BHI
  MIC: > 256 µM
S. pneumoniae; media MH
  MIC: > 256 µM
S. aureus
  MIC: > 256 µM
M. tuberculosis
  MIC: > 256 µM
E. coli
  MIC: > 64 µM
P. aeruginosa
  MIC: > 256 µM
C. diphteriae; media BHI
  MIC: > 64 µM
C. diphteriae; media MH
  MIC: > 256 µM
C. glutamicum
  MIC: > 64 µM
L. monocytogenes
  MIC: > 64 µM

## N#Cc1ccc(C=NNC(=O)c2cnn(-c3ccc([N+](=O)[O-])cc3)c2C(F)(F)F)cc1 [Compound C10, N'-[(4-cyanophenyl)methylene]-1-(4-nitrophenyl)-5-(trifluoromethyl)-1H-pyrazole-4-carbohydrazide]
S. thyphimurium
  MIC: > 256 µM
C. ammoniagenes; media BHI
  MIC: > 64 µM
C. ammoniagenes; media MH
  MIC: > 256 µM
C. ammoniagenes; media MH+DFO
  MIC: > 256 µM
C. ammoniagenes; media MH+DIP
  MIC: > 256 µM
C. ammoniagenes; media MH+DIP+DFO
  MIC: > 256 µM
M. smegmatis
  MIC: > 256 µM
S. pneumoniae; media BHI
  MIC: > 256 µM
S. pneumoniae; media MH
  MIC: > 256 µM
S. aureus
  MIC: > 256 µM
M. tuberculosis
  MIC: > 256 µM
E. coli
  MIC: > 64 µM
P. aeruginosa
  MIC: > 256 µM
C. diphteriae; media BHI
  MIC: > 64 µM
C. diphteriae; media MH
  MIC: > 256 µM
C. glutamicum
  MIC: > 64 µM
L. monocytogenes
  MIC: > 64 µM

## COc1ccc(NC(=O)CC(CC(=O)O)c2cc(OC)c(OC)c(OC)c2)cc1 (stereo not shown) [Compound C11, 5-(4-methoxyanilino)-5-oxo-3-(3,4,5-trimethoxyphenyl)pentanoic acid]
S. thyphimurium
  MIC: > 256 µM
C. ammoniagenes; media BHI
  MIC: > 64 µM
C. ammoniagenes; media MH
  MIC: > 256 µM
C. ammoniagenes; media MH+DFO
  MIC: > 256 µM
C. ammoniagenes; media MH+DIP
  MIC: > 256 µM
C. ammoniagenes; media MH+DIP+DFO
  MIC: > 256 µM
M. smegmatis
  MIC: > 256 µM
S. pneumoniae; media BHI
  MIC: > 256 µM
S. pneumoniae; media MH
  MIC: > 256 µM
S. aureus
  MIC: > 256 µM
M. tuberculosis
  MIC: > 256 µM
E. coli
  MIC: > 64 µM
P. aeruginosa
  MIC: > 256 µM
C. diphteriae; media BHI
  MIC: > 64 µM
C. diphteriae; media MH
  MIC: > 256 µM
C. glutamicum
  MIC: > 64 µM
L. monocytogenes
  MIC: > 64 µM

## CC1=C(C)CC(C(=O)Nc2ccc(Oc3ccc(Cl)cc3)cc2)C(C(=O)O)C1 (stereo not shown) [Compound C12, 6-{[4-(4-chlorophenoxy)anilino]carbonyl}-3,4-dimethylcyclohex-3-ene-1-carboxylic acid]
S. thyphimurium
  MIC: > 256 µM
C. ammoniagenes; media MH
  MIC: > 256 µM
C. ammoniagenes; media MH+DFO
  MIC: > 256 µM
C. ammoniagenes; media MH+DIP
  MIC: > 256 µM
C. ammoniagenes; media MH+DIP+DFO
  MIC: > 256 µM
S. aureus
  MIC: > 256 µM
CaFADS
  Tm shift of CaFADS thermal denaturation: neither binder nor inhibitor
M. tuberculosis
  MIC: > 256 µM
E. coli
  MIC: > 256 µM
P. aeruginosa
  MIC: > 256 µM
C. diphteriae; media MH
  MIC: > 256 µM
C. glutamicum
  MIC: > 256 µM
L. monocytogenes
  MIC: > 256 µM

## O=C(O)C(=Cc1ccc2c(c1)OCO2)NC(=O)c1ccccc1 [Compound C14, 3-(1,3-benzodioxol-5-yl)-2-(benzoylamino)acrylic acid]
S. thyphimurium
  MIC: > 256 µM
C. ammoniagenes; media BHI
  MIC: > 64 µM
C. ammoniagenes; media MH
  MIC: > 256 µM
C. ammoniagenes; media MH+DFO
  MIC: > 256 µM
C. ammoniagenes; media MH+DIP
  MIC: > 256 µM
C. ammoniagenes; media MH+DIP+DFO
  MIC: > 256 µM
M. smegmatis
  MIC: > 256 µM
S. pneumoniae; media BHI
  MIC: > 256 µM
S. pneumoniae; media MH
  MIC: > 256 µM
S. aureus
  MIC: > 256 µM
M. tuberculosis
  MIC: > 256 µM
E. coli
  MIC: > 64 µM
P. aeruginosa
  MIC: > 256 µM
C. diphteriae; media BHI
  MIC: > 64 µM
C. diphteriae; media MH
  MIC: > 256 µM
C. glutamicum
  MIC: > 64 µM
L. monocytogenes
  MIC: > 64 µM

## NS(=O)(=O)c1ccc(NC(=O)CC(CC(=O)O)c2ccccc2)cc1 (stereo not shown) [Compound C17, 5-[4-(aminosulfonyl)anilino]-5-oxo-3-phenylpentanoic acid]
S. thyphimurium
  MIC: > 256 µM
C. ammoniagenes; media MH
  MIC: > 256 µM
C. ammoniagenes; media MH+DFO
  MIC: > 256 µM
C. ammoniagenes; media MH+DIP
  MIC: > 256 µM
C. ammoniagenes; media MH+DIP+DFO
  MIC: > 256 µM
S. aureus
  MIC: > 256 µM
M. tuberculosis
  MIC: > 256 µM
E. coli
  MIC: > 256 µM
P. aeruginosa
  MIC: > 256 µM
C. diphteriae; media MH
  MIC: > 256 µM
C. glutamicum
  MIC: > 256 µM
L. monocytogenes
  MIC: > 256 µM

## Cc1ccc(OCC2SCCN2C(=O)c2c(-c3c(Cl)cccc3Cl)noc2C)c([N+](=O)[O-])c1 (stereo not shown) [Compound C25, [3-(2,6-dichlorophenyl)-5-methylisoxazol-4-yl]{2-[(4-methyl-2-nitrophenoxy)methyl]-1,3-thiazolan-3-yl}methanone]
S. thyphimurium
  MIC: > 256 µM
C. ammoniagenes; media MH
  MIC: > 256 µM
C. ammoniagenes; media MH+DFO
  MIC: > 256 µM
C. ammoniagenes; media MH+DIP
  MIC: > 256 µM
C. ammoniagenes; media MH+DIP+DFO
  MIC: > 256 µM
S. aureus
  MIC: > 256 µM
M. tuberculosis
  MIC: > 256 µM
E. coli
  MIC: > 256 µM
P. aeruginosa
  MIC: > 256 µM
C. diphteriae; media MH
  MIC: > 256 µM
C. glutamicum
  MIC: > 256 µM
L. monocytogenes
  MIC: > 256 µM
